In patent publication US7645740B2, “Peptide sequence found in Laminin 5 for treating skin impairments” (Laboratoires d'Anjou Centre National de la Recherche …, priority 2004, dated 2010):

Tests used:
[1] = tested on: HBL100 cells (human mammary epithelium); assay: Cell adhesion test to immobilized peptides, HBL100; format: cell-based; settings: HBL100, 0 to 10 micrograms immobilized peptide, 8×10^4 cells per well, 1 hour 37° C., absorbance 570 nm
Method: (§1) Dose-dependent cell adhesion of cell line HBL100 to various peptides 1, 2 and 3. The peptides were immobilized in 96-well plates at the concentrations given on the abscissa. 8×10^4 cells were deposited in each well and plates were incubated at 37° C. for 1 hour. After washing, attached cells were fixed and cell adhesion was measured as described in the methodology section.
(§2) Peptides 1, 2 and 3 were used for the cell adhesion experiments. A range of 7 decreasing concentrations (100 micrograms/ml, 50 micrograms/ml, 25 micrograms/ml, 12.5 micrograms/ml, 6.25 micrograms/ml, 3.125 micrograms/ml and 1.562 micrograms/ml) was made up by successive dilution in PBS (Phosphate Buffer Saline, KH2PO4 1.54 mM; Na2HPO4 1.42 mM; NaCl-131 mM) using a starting solution at a concentration of 1 mg/ml. These solutions were immediately distributed onto a 96-well culture plate (Greinher, Dutscher, Brumath, France) at a rate of 100 μl per well. Plates were then placed at +4° C. for 16 to 18 hours. The solutions were then removed by turning the plates and each well was saturated with a 1% PBS-BSA solution (bovine serum albumin). Three additional wells without the substrate underwent the same treatment and were used as blanks.
(§3) Epithelial cells were detached from the culture dishes using a trypsin/EDAT solution (0.05-0.02%) then suspended in DMEM medium without additives for the cell lines and in KBM-2 without additive for human keratinocytes. The number of seeded cells per well is given in the graphs (50,000 to 100,000 cells per well).
(§4) After cell seeding, the multi-well plates were placed in an incubator at 37° C. under 5% CO2. After incubation for 30 to 60 minutes, cells were observed under a phase contrast microscope in order to verify that the test was conducted correctly. The adhesion medium was then removed and each well was washed in a sterile PBS solution to remove non-adhering cells. The remaining cells, attached to the substrate, were then fixed using a solution of 1% glutaraldehyde in PBS for 15 minutes. The glutaraldehyde solution as removed and the cells were stained with a crystal violet solution diluted to 1% in distilled water for 30 minutes.
(§5) After rinsing in water several times, cells were permeabilized by means of a 0.02% triton solution for 15 minutes in order to solubilize the crystal violet. Absorbances were read at 570 nm using an ELISA plate reader (MR500, Dynatech, Guernsey, Channel Islands). Each experimental point was carried out in triplicate. The blank value represented the mean absorbance of 3 control wells (BSA). This was subtracted from each of the optical density values for the experimental points. We then calculated the mean for the three absorbance values for each of the triplicate samples.
(§6) The results are presented in the form of a graph with the absorbance values on the ordinate and the various substrate concentrations on the abscissa. Attached cells were photographed by phase contrast microscopy.
(§7) The following cells from epithelial cell lines were used initially (commonly used in preliminary studies on cell adhesion): • line HT1080 cells (human fibrosarcoma), American Type Culture Collection CCL-121. • line HB100 cells (human mammary epithelium), American Type Culture Collection HTB-124. • line A431 cells (skin epitheliods), American Type Culture Collection CRL-1555.

[2] = tested on: HT1080 cells (human fibrosarcoma); assay: Cell adhesion test to immobilized peptides, HT1080; format: cell-based; settings: HT1080, 0 to 10 micrograms immobilized peptide, 8×10^4 cells per well, 1 hour 37° C., absorbance 570 nm
Method: as §1, with “HT1080” for “HBL100”
Dose-dependent cell adhesion of HT1080 cells to various peptide TALRIRATYGEY (SEQ ID NO. 1). The peptides were immobilized in 96-well plates in the quantities given on the abscissa. 8×10^4 cells and 15×10^4 cells were deposited in each well and plates were incubated at 37° C. for 1 hour. After washing, attached cells were fixed and cell adhesion was measured as described in the methodology section. Cells were observed by phase contrast microscopy then photographed. Bar =50 μm
as §2, §3, §4
as §5, with “This was subtracted from each of the optical density values for the experimental points.” left out
The results are presented in the form of a graph with the absorbance values on the ordinate and the various substrate concentrations on the abscissa. […]
A second approach was taken in order to determine the minimum quantity of active peptide and the number of adhering cells was increased in order to obtain a confluent cell network. […]

[3] = tested on: normal human keratinocytes; assay: Cell adhesion test to immobilized peptides, normal human keratinocytes; format: cell-based; settings: 0 to 10 micrograms immobilized peptide, 10^5 cells per well, 1 hour 37° C., absorbance 570 nm
Method: as §1, with “normal human keratinocytes” for “cell line HBL100”, “10^5” for “8×10^4”
as §2, §3, §4, §5, §6
Freshly isolated normal human keratinocytes were used in a second experiment. As the basal keratinocytes of the epidermis are in direct contact with LN-5 in the skin, it was necessary to test their adhesion capacity to the peptide in question. Human keratinocytes were obtained from a foreskin biopsy (surgery waste, Pavillon T-Bis, Eduard Herriot Hospital). […]

[4] = tested on: A431 cells (skin epitheloids); assay: Cell adhesion test to immobilized peptides, A431; format: cell-based; settings: A431, 0 to 10 micrograms immobilized peptide, 8×10^4 cells per well, 1 hour 37° C., absorbance 570 nm
Method: as §1, with “A431” for “HBL100”
as §2, §3, §4, §5, §6, §7

NHKs [5] = assay: Cell adhesion of NHKs to peptides co-immobilized with laminin 5; format: cell-based, human; settings: laminin 5 fixed quantity 0.2 mg, 50,000 cells per well, percentage of LN5 alone
Method: Peptides 1, 2 and 3 (variable quantities indicated) and laminin 5 (fixed quantity 0.2 mg) were co-immobilized in 96-well plates. 5×104 NHKs were deposited in each well and plates were incubated at 37° C. for 1 hour. After washing, attached cells were fixed and cell adhesion was measured as described in the methodology section. Cell adhesion in the presence of the peptide is given as a percentage of cell adhesion obtained with laminin 5 alone. Cells were observed by phase contrast microscopy then photographed. Bar=50 μm.
(§8) A decreasing range of LN5 (prepared in the laboratory) and COL4 (BD Biosciences, Le Pont de Claix, France) quantities was made up by successive dilution in PBS. These solutions were immediately distributed into a 96-well culture plate (Costar) at a rate of 100 μl per well. The experiment was conducted in exactly the same way as the experiment described in example 2. The results are given in the form of a graph with the absorbance values representing adhesion on the ordinate and the various substrate concentrations on the abscissa. Attached cells were photographed by phase contrast microscopy.
In order to analyse the effect of the peptide on cell adhesion to DEJ proteins, peptide TALRIRATYGEY (SEQ ID NO.1) (peptide 1) was co-immobilized with LN5 (FIG. 14) and COL4 (FIG. 15). The fixed quantity of matrix protein (LN5 and COL4) and the variable quantity of peptide are given on the graph (FIGS. 14 and 15). Peptides 2 and 3 (described in example 1) were used as controls for the experiment. The adhesion tests were carried out with NHK under the same conditions as the experiment given in FIG. 13 (50,000 cells per well). A peptide-free control representing 100% adhesion (LN5 only and COL4 only) was used to allow analysis of the effect of adhesion relating to the presence of the peptide. The results are given as a percentage of this control.

NHKs [6] = assay: Cell adhesion of NHKs to laminin 5 and collagen IV substrates; format: cell-based, human; settings: 0 to 2 micrograms per well, 5×10^4 NHKs per well, 1 hour 37° C.
Method: (A) Diagrammatic representation of laminin 5 and collagen IV in the dermo-epidermal junction (DEJ). (B) Dose-dependent cell adhesion of NHKS to laminin 5 and collagen IV. laminin 5 and collagen IV were fixed to 96-well plates in the quantities given on the abscissa. 5×10^4 NHKs were deposited in each well and plates were incubated at 37° C. for 1 hour. After washing, attached cells were fixed and cell adhesion was measured as described in the methodology section.
as §8

Row | Substance | cell adhesion to immobilized peptide [1] | cell adhesion to immobilized peptide [2] | cell adhesion to immobilized peptide [3] | cell adhesion to immobilized peptide [4] | effect on adhesion of NHKs to LN5 (co-immobilized) (NHKs [5]) | adhesion of NHKs to substrate protein (NHKs [6])
1 | GLTKTYTFRLNE (Human laminin 5) [Peptide 2, control peptide from the gamma 2 chain of laminin 5, position 309-321, reference compound] | did not lead to any adhesion | did not lead to any adhesion | did not lead to any adhesion | did not lead to any adhesion | do not modify adhesion | –
2 | LN5: laminin 5, dermo-epidermal junction glycoprotein, prepared in the laboratory, used as adhesion substrate | – | – | – | – | – | much better substrate
3 | DVKNLENIRDNL (Human laminin 5) [Peptide 3, control peptide from the terminal carboxy end of the gamma 2 chain of laminin 5, position 1169-1180, reference compound] | did not lead to any adhesion | did not lead to any adhesion | did not lead to any adhesion | did not lead to any adhesion | do not modify adhesion | –
